“Also recorded” adds a separate entry of the source.
What was measured:
[1] = tested on: IgE antibodies from patients having allergies to each food; experiment: Confirmation of epitope cross-reactivity by ELISA with biotinylated peptides; type: binding, human
Description: Amino acids other than amino acids important for maintaining binding to IgE antibodies, in each of the epitope sequences found in the wheat proteins in Table 2 were defined as any given amino acid (X). NCBI was searched for proteins having the key sequences having the amino acid residues X in cooking ingredient allergens carried in common by each of the patients. As a result, an amino acid sequence contained in a sequence in each food described in the column “Food with which cross-reactivity was confirmed” in Table 2 was identified as one example.
The binding activity of peptides comprising the amino acid sequences described in the column “Synthesis sequence” and the rightmost column “SEQ ID NO” of Table 2 against IgE antibodies from patients having allergies to each food described in the column “Food with which cross-reactivity was confirmed” in Table 2 was confirmed by ELISA. The peptides were synthesized such that the peptides were N-terminally biotinylated by the Fmoc method.
To be specific, ELISA was carried out according to the following procedure. • (1) The concentrations of the biotinylated peptides were adjusted to 10 μg/mL with PBST (0.1% Tween 20). • (2) Each peptide solution was added at 20 μL to each well of a 384-well plate coated with streptavidin, and shaken at room temperature for one hour. After collection of the solution, the wells were washed with PBST five times. • (3) Pierce Protein-Free (PBS) Blocking Buffer (produced by Thermo) was added at 40 μL thereto and shaken at room temperature for one hour. After removal of the solution, the wells were washed with PBST five times. • (4) 2% serum/Canget SignalSolution I (produced by TOYOBO) was added at 20 μL thereto and shaken at room temperature for one hour. After removal of the solution, the wells were washed with PBST five times. • (5) A diluted secondary antibody solution (1:10000, Canget SignalSolution II (produced by TOYOBO)) was added at 20 μL thereto and shaken at room temperature for one hour. After removal of the solution, the wells were washed with PBST five times. • (6) 1-Step Ultra TMB-ELISA (produced by Thermo) was added at 20 μL thereto and shaken at room temperature for 15 minutes. • (7) 2 M H2SO4 was added at 20 μL thereto. Absorbance at 450 nm was measured.
Peptides having these amino acid sequences were prepared by the same procedure as described in Example 4 (A), and the presence or absence of binding thereto of IgE antibodies present in the serum of an allergic patient and the serum of a nonallergic subject was measured. The serum of two nonallergic subjects was measured, and values obtained by dividing the measurement values by an average value thereof were used.
The bar graph of each figure depicts “absorbance of the allergic patient/absorbance of the nonallergic patient (healthy subject)”. The names of the cooking ingredients described in each graph are the names of cooking ingredients containing a polypeptide comprising an amino acid sequence serving as the basis of each synthetic sequence used.

[2] = tested on: IgE antibodies from patients; experiment: Wheat epitope mapping (3): alanine/glycine scanning; type: binding, human; details: from analysis of epitope mapping (A) to (C); many samples
Procedure: From the amino acid sequences identified above in (A), a library of peptide fragments in which amino-terminal amino acids were substituted one by one by alanine (or glycine when the original amino acid was alanine) according to a technique called alanine/glycine scanning (Non Patent Literature 5) was prepared by the same technique as described above. The presence or absence of binding of an IgE antibody present in the serum of a patient to each peptide fragment was measured by the same technique as described above.
Chemiluminescence intensity in images obtained by measurement was converted into a numeric value in the same manner as in (A). Numeric values determined from images obtained from secondary antibody measurement values were used as control values. The control value of each peptide was subtracted from numeric values determined from images obtained from results about the serum of 49 patients. When values obtained using the sequences (SEQ ID NOs: 29, 131, 191, 281, 346, 414, 493, 562, 640, 706, 776, 899, 974, 1010, 1089, 1142, 1166, 1209, 1257, 1297, 1367, 1403, 1508, 1566, 1598, 1608, 1685, 1753, 1789, 1836, 1895, 1977, 2004, 2027, 2068, 2154, 2217, 2265, 2309, 2342, 2419, 2491, 2545, 2613, 2631, 2674, 2701, 2774, 2809 and 2830) serving as the basis of alanine/glycine scanning were defined as 100%, it was determined that: a peptide having a value of the difference that was less than 30% had no binding activity against IgE antibodies; a peptide having a value of the difference that was 30% or more and less than 50% had binding activity, albeit poor, against IgE antibodies; a peptide having a value of the difference that was 50% or more and less than 70% had binding activity, albeit somewhat poor, against IgE antibodies; and a peptide having a value of the difference that was 70% or more had equivalent or good binding activity against IgE antibodies and was thus a peptide had remaining binding activity against IgE antibodies.
By analysis of the results of (A) to (C), common sequences important for exertion of original antigenicity were found in regions important for binding to IgE antibodies from patients, in the sequences serving as the basis of alanine/glycine scanning.

[3] = synthetic sequence, Graph No. 3, epitope of patient P8

29 (QQILWYHQQQPIQQQ; REGION 1..15: note = epitope) [compound 29]
Food in which cross-reactivity was confirmed ([1]; serum IgE of patient P7 (WDEIA), epitope E1, LMW-D8(LMW-GS) B2BZD1, Spot No. 9, key sequence XXXXXXXQXXXIQQX (SEQ ID NO 45), Graph No. 1): Wheat | Food in which cross-reactivity was confirmed ([1]; serum IgE of patient P13 (WDEIA), epitope E1, LMW-D8(LMW-GS) B2BZD1, Spot No. 9, key sequence XXXXXYXQXXXIQQX (SEQ ID NO 62), Graph No. 1): Wheat | Food in which cross-reactivity was confirmed ([1]; serum IgE of patient P36 (WDEIA), epitope E1, LMW-D8(LMW-GS) B2BZD1, Spot No. 9, key sequence XXXXXXXQXXXIQQX (SEQ ID NO 122), Graph No. 1): Wheat

2881 (QEQQQYYPQQQAFFL; REGION 1..15: note = epitope) [compound 2881]
Food in which cross-reactivity was confirmed ([1]; serum IgE of patient P4 (WDEIA), epitope E3, LMW-D8(LMW-GS) B2BZD1, Spot No. 9, key sequence XXXQQXXPQQXXXXX (SEQ ID NO 203), Graph No. 1): Orchard grass | Food in which cross-reactivity was confirmed ([1]; serum IgE of patient P10 (WDEIA), epitope E3, LMW-D8(LMW-GS) B2BZD1, Spot No. 9, key sequence XXXQQXXPQQQXXXX (SEQ ID NO 220), Graph No. 1): Orchard grass | Food in which cross-reactivity was confirmed ([1]; serum IgE of patient P32 (WDEIA), epitope E3, LMW-D8(LMW-GS) B2BZD1, Spot No. 9, preferred sequence XXQQQXFPQQQXXXX (SEQ ID NO 268), Graph No. 1): Orchard grass

2889 (ILFEETLYQS; REGION 1..10: note = epitope) [compound 2889]
Food in which cross-reactivity was confirmed ([1]; epitope E10 (Fructose-bisphosphate aldolase W5CCA9), listed under patient P8, Graph No. 3): Wheat/rye/barley

2910 (SLAEYTVRTLQRTVP; REGION 1..15: note = epitope) [compound 2910]
Food in which cross-reactivity was confirmed ([1]; Graph No. 2, synthetic sequence listed under patient P16): Wheat/rye/barley/; also recorded: timothy

2922 (GIDKRV; REGION 1..6: note = epitope) [compound 2922]
Food in which cross-reactivity was confirmed [1, 3]: Wheat/barley

2923 (KRVIERFEK; REGION 1..9: note = epitope) [compound 2923]
Food in which cross-reactivity was confirmed [1, 3]: Wheat/barley

GLFGTN (GIFGTN)
Food in which cross-reactivity was confirmed ([1]; synthetic sequence tested for IgE binding by ELISA, Graph No. 3, epitope row of patient P8): Wheat/barley/rye 3

NEPSQLSLDQNAQGL
Food in which cross-reactivity was confirmed ([1]; epitope E16 (Fructose-bisphosphate aldolase W5CCA9, Spot No. 4), patient P21, key sequence XXXXQXXXDQNXXXX (SEQ ID NO 1144), Graph No. 2): timothy

QPIQ (REGION 1..4: note = epitope) [SEQ ID NO: 30]
short polypeptide confirmed as epitope binding to IgE antibodies [2]: confirmed as epitopes binding to IgE antibodies in many samples

SEQ ID NO: 58: polypeptide consisting of 4 amino acid residues, among sequences of (E1) (PIQQ; REGION 1..4: note = epitope)
short polypeptide confirmed as epitope binding to IgE antibodies [2]: confirmed as epitopes binding to IgE antibodies in many samples

SEQ ID NO: 61: polypeptide consisting of 4 amino acid residues, among sequences of (E1) (QPIQ; REGION 1..4: note = epitope)
short polypeptide confirmed as epitope binding to IgE antibodies [2]: confirmed as epitopes binding to IgE antibodies in many samples

SEQ ID NO: 222: polypeptide consisting of 4 amino acid residues, among sequences of (E3) (QQPF; REGION 1..4: note = epitope)
short polypeptide confirmed as epitope binding to IgE antibodies [2]: confirmed as epitopes binding to IgE antibodies in many samples

SEQ ID NO: 238: polypeptide consisting of 4 amino acid residues, among sequences of (E3) (PFPQ; REGION 1..4: note = epitope)
short polypeptide confirmed as epitope binding to IgE antibodies [2]: confirmed as epitopes binding to IgE antibodies in many samples

SEQ ID NO: 345: polypeptide consisting of 4 amino acid residues, among sequences of (E4) (QPFP; REGION 1..4: note = epitope)
short polypeptide confirmed as epitope binding to IgE antibodies [2]: confirmed as epitopes binding to IgE antibodies in many samples

From patent publication US20240393292A1, “ALLERGY ANTIGEN AND EPITOPE THEREOF” (HOYU CO., LTD., priority 2019, published 2024)
